Results from patent US10245328B2, “Gadolinium complex comprising DO3A-tranexamic acid conjugate” (KYUNGPOOK NATIONAL UNIVERSITY INDUSTRY-ACADEMIC COOPERATION …, priority 2014, dated 2019).
“Also recorded” adds a separate entry of the source.

Legend:
[1] = Transmetalation kinetics with ZnCl2, evolution of R1P(t)/R1P(0); type: physicochemical; conditions: 72 h; phosphate buffer pH 7.4, 2.5 mmol/L Gd complex + 2.5 mmol/L ZnCl2, room temperature, 3T
Description: This experiment is prepared using a previous document method (Laurent, S. Elst, L. V.; Copoix, F.; Muller, R. N. Investigative radiology 2001, 36, 115). This is based on measurements of evolution of a water proton longitudinal relaxation rate (R1P) of a buffer solution (phosphate buffer, pH 7.4) containing 2.5 mmol/L gadolinium complex and 2.5 mmol/L ZnCl2. Next, 10 μL ZnCl2 250 mmol/L solution is added to a […] paramagnetic complex buffer solution. The mixture is strongly agitated, and then, 300 μL thereof is taken for a relaxation measurement (relaxometric measurement). […] A R1P relaxation rate is acquired by excluding a diamagnetic contribution of a water proton relaxation from the measured relaxation rate R1=(1/T1). The measurement is performed at a room temperature on a 3T whole body system (Magnetom Tim Trio, Simens, Korea Institute of Radiological & Medical Science).
An evaluation of a normal paramagnetic longitudinal relaxation rate R1P (t)/R1P (0) is observed between the present series 2a-e and comparison examples Dotarem®, Primovist®, Multihance®, and Omniscan® (FIG. 4). The used complex in the test is divided into two following groups based on an evolution pattern: (i) a group employing a macrocyclic chelate (ii) a group employing an acyclic chelate. […]

[2] = Kinetic stability in various pH ranges (evolution of R1 in PBS); type: physicochemical; conditions: pH 1, [Gd]=1.0 mM in PBS, room temperature
Description: The kinetic stability is expressed as evolution of a water proton relaxation rate (R1) for 2 ([Gd]=1.0 mM) in PBS under various pH conditions (pH: 1, 3, 5, 7, 9 and 11) at a room temperature, as a function of the incubation time. The measurement is executed on a 1.5 T whole body system (GE Healthcare, Milwaukee, Wis., USA).

ICR mice = test: In vivo MR experiment, T1-weighted images after tail vein injection; conditions: for signal enhancement / signal strength at the liver / liver-specificity / class of contrast agent: 0.1 mmol Gd/kg i.v.; for signal enhancement / signal strength at the liver: 1.5 T, initial 1 hour; for liver-specificity / class of contrast agent: in vivo MR images of mice
Description: The in vivo experiment is executed with compliance to a regulation of Animal Research Committee of KNU. 29-31 g weight 6-weeks male ICR mice are used. […] The measurement is carried out before and after the injection of the complexes 2a-e through the tail vein. […] After the mice wake from the anesthesia after each measurement, the mice were placed in a cage capable of free access to feed and food. For this measurement, the animals are held at about 37° C. using a warm water blanket. MR images are taken using a 1.5 T MR unit (GE Healthcare, Milwaukee, Wis.) with a manual RF coil for a small animal. The coil may be of a receiver type having a 50 mm inner diameter. […] MR images are collected for 24 h after the injection. Anatomical positions having an improved contrast are set for a liver, a bile duct, and a kidney on (post contrast) MR images. For quantitative measurements, a signal intensity in a region of interest (ROI) is measured using Advantage Window software (GE medical, U.S.). The CNR is calculated using a following equation (1): […] SNR is a […].

[3] = Stability against hydrolysis in H2O (HPLC, 197 nm); type: physicochemical; conditions: for HPLC peak 6.54 min, 2d / HPLC peak 7.79 min / HPLC peak 8.86 min / HPLC peak 33.15 min / HPLC peak 40.33 min / HPLC peak 40.81 min / HPLC peak 43.77 min / HPLC peak 44.51 min / HPLC peak 46.56 min: 2d in water
Description: The contrast agents of the present series 100 mg are dissolved in distilled water 10 mL and is maintained as they are for 72 hours at 50° C. Using HPLC, O.D. (Optical Density) values are read at 197 nm and the stability of the agents is determined. The substances at each retention time are examined using LC Mass Spectroscopy for accurate identification of decomposed products.

[4] = Relaxation rate measurement (R1, R2) in PBS and in PBS solution of HSA; type: physicochemical; conditions: 293K; for R1 / R2: PBS pH 7.4, 64 MHz (1.5 T); for R1 in 0.67 mM HSA / R2 in 0.67 mM HSA: PBS solution of 0.67 mM HSA, 64 MHz
Description: T1 measurement is carried out using an inversion recovery method at 1.5 T (64 MHz) in a variable inverse time (TI). MR images are obtained for 35 different TI values in a range of 50 to 1750 ms. A T1 relaxation time is obtained from a nonlinear least-squares fit of a signal strength measured at each TI value. For a T2 CPMG (Carr-Purcell-Meiboon-Gill) pulse sequence measurement, the measurement is adapted to a multi spin-echo measurement. 34 images are obtained at 34 different echo time (TE) values in a range of 10 to 1900 ms. The T2 relaxation time is obtained from a nonlinear least-squares fit of mean pixel values for multi spin-echo measurement at each echo time. Next, a relaxation rate (R1 and R2) is calculated as an inverse of a relaxation time per mM. The determined relaxation time (T1 and T2) and relaxation rate (R1 and R2) are subjected to an image processing to get a relaxation time map and relaxation rate respectively.
For comparison between the complexes 2a-e, there is no noticeable difference in R1's. The measurement is carried out for two different media, that is, PBS (pH=7.4) and PBS solution of HAS in order to indicate which blood-pool effect is expressed by the complexes 2a-e.

[5] = Isothermal titration calorimeter (ITC), binding of Gd^3+ to ligand; conditions: 25° C., pH = 4.5, read-out: Kd (dissociation constant)
Description: In order to quantify binding isotherms of paramagnetic metal ions Gd^3+ with a ligand solution, an ITC test is executed at a VP-ITC isothermal titration microcalorimeter (Microcal, USA). Data collection, analysis and plotting are executed with help of software package Origin, version 8.0 from Microcal. A sample cell has a 1.43 mL volume. The cell is filled with a water-soluble buffer solution of the above compound 1a-e ligand (0.2 mM). A water-soluble buffer solution of Gd^3+ (1.0 mM) is input into a 300 μL continuous agitated (300 rpm) syringe and 10 μL aliquots thereof is injected into the cell. At a 3-mins interval, the cell is delivered over 20 s. Data points are collected on a 2 s basis. The measurement is executed at 25° C. All titrations are executed three times to secure data consistency and solution stability. These titration isotherms are integrated to find out an enthalpy change at each injection. In order to fit well with two mathematically different sets of site models, the titration isotherms are analyzed. Via a calorie measurement, parameters including a binding constant (Ka), a change in enthalpy (ΔH), a stoichiometry of binding (N) are calculated. Next, a free energy (ΔG) and an entropy change (ΔS) are calculated using a following complexation equation: Mn++nL↔MLn:ΔG=−RT·InKa=ΔH-TΔS,
where, R indicates a universal gas constant; T is Kelvin temperature.

SMILES: CNC[C@H](O)[C@@H](O)[C@H](O)[C@H](O)CO.CNC[C@H](O)[C@@H](O)[C@H](O)[C@H](O)CO.O=C([O-])CN(CCN(CC(=O)[O-])CC(=O)O)CCN(CC(=O)O)C(COCc1ccccc1)C(=O)[O-].[Gd+3] (stereo not drawn) [Multihance, Gd-BOPTA]
- portion of the initial paramagnetic relaxation rate kept, R1P(t)/R1P(0) [1]: 50%

SMILES: CCOC(=O)C1CCC(CNC(=O)CN2CCN(CC(=O)[O-])CCN(CC(=O)[O-])CCN(CC(=O)[O-])CC2)CC1.[Gd+3] (stereo not drawn) [2a]
- kinetic stability (evolution of R1) [2]: sufficient kinetic stability
- signal enhancement / signal strength at the liver (ICR mice; ICR mice): insufficient to be qualified as the liver-specific contrast agent
- liver-specificity / class of contrast agent (ICR mice): exhibits the liver-specificity; also recorded: true liver-specific contrast agent
- hydrolytic stability (in words) ([3]; 100 mg in distilled water 10 mL, 72 hours at 50° C.): hydrolytic stability falls
- HPLC peak 2.31 min, 2b ([3]; 2a in water, 50° C./3 day): 0.72%
- HPLC peak 27.11 min, 2a (trans) ([3]; 2a in water, 50° C./3 day): 97.43%
- HPLC peak 30.48 min, 2a (cis) ([3]; 2a in water, 50° C./3 day): 1.25%
- HPLC peak 52.24 min ([3]; 2a in water, 50° C./3 day): 0.19%
- HPLC peak 2.31 min, 2b ([3]; 2a in water, initial): 0.01%
- HPLC peak 27.11 min, 2a (trans) ([3]; 2a in water, initial): 97.73%
- HPLC peak 30.48 min, 2a (cis) ([3]; 2a in water, initial): 1.89%
- HPLC peak 52.24 min ([3]; 2a in water, initial): 0.04%
- R1 [4]: 4.84 ± 0.18 mM⁻¹ s⁻¹
- R2 [4]: 4.91 ± 0.25 mM⁻¹ s⁻¹
- R1 in 0.67 mM HSA [4]: 5.11 ± 0.10 mM⁻¹ s⁻¹
- R2 in 0.67 mM HSA [4]: 6.04 ± 0.13 mM⁻¹ s⁻¹

SMILES: NCCNC(=O)C1CCC(CNC(=O)CN2CCN(CC(=O)O)CCN(CC(=O)O)CCN(CC(=O)O)CC2)CC1 (stereo not drawn) [1c]
- Kd [5]: 16.8 µM

SMILES: NC1CCC(NC(=O)CN2CCN(CC(=O)O)CCN(CC(=O)O)CCN(CC(=O)O)CC2)CC1 (stereo not drawn) [1d]
- Kd [5]: 29.3 µM

SMILES: NCCNC(=O)C1CCC(CNC(=O)CN2CCN(CC(=O)[O-])CCN(CC(=O)[O-])CCN(CC(=O)[O-])CC2)CC1.[Gd+3] (stereo not drawn) [2c]
- signal enhancement / signal strength at the liver (ICR mice; ICR mice): strong signal enhancement
- liver-specificity / class of contrast agent (ICR mice): strong specificity enhancement
- HPLC peak 2.58% ([3]; 2c in water, 50° C./3 day): 0.27%
- HPLC peak 7.61% ([3]; 2c in water, 50° C./3 day): 0.14%
- HPLC peak 19.86% ([3]; 2c in water, 50° C./3 day): 2.30%
- HPLC peak 2.31 min, 2b ([3]; 2c in water, 50° C./3 day): 0.11%
- HPLC peak 9.10 min, 2c (trans) ([3]; 2c in water, 50° C./3 day): 93.11%
- HPLC peak 10.60 min, 2c (cis) ([3]; 2c in water, 50° C./3 day): 1.19%
- HPLC peak 40.68 min, 1c ([3]; 2c in water, 50° C./3 day): 0.002%
- HPLC peak 45.53 min ([3]; 2c in water, 50° C./3 day): 0.18%
- HPLC peak 49.81 min ([3]; 2c in water, 50° C./3 day): 0.11%
- HPLC peak 2.58% ([3]; 2c in water, initial): 0.27%
- HPLC peak 7.61% ([3]; 2c in water, initial): 0.14%
- HPLC peak 2.31 min, 2b ([3]; 2c in water, initial): 0.06%
- HPLC peak 9.10 min, 2c (trans) ([3]; 2c in water, initial): 91.05%
- HPLC peak 10.60 min, 2c (cis) ([3]; 2c in water, initial): 1.35%
- HPLC peak 40.68 min, 1c ([3]; 2c in water, initial): 1.65%
- HPLC peak 45.53 min ([3]; 2c in water, initial): 0.16%
- HPLC peak 49.81 min ([3]; 2c in water, initial): 0.09%
- R1 [4]: 3.68 ± 0.13 mM⁻¹ s⁻¹
- R2 [4]: 3.62 ± 0.26 mM⁻¹ s⁻¹
- R1 in 0.67 mM HSA [4]: 3.74 ± 0.07 mM⁻¹ s⁻¹
- R2 in 0.67 mM HSA [4]: 4.10 ± 0.07 mM⁻¹ s⁻¹

SMILES: CCOc1ccc(CC(CN(CCN(CC(=O)[O-])CC(=O)[O-])CC(=O)[O-])N(CC(=O)[O-])CC(=O)[O-])cc1.[Gd+3].[Na+].[Na+] (stereo not drawn) [Primovist, Gd-EOB-DTPA]
- portion of the initial paramagnetic relaxation rate kept, R1P(t)/R1P(0) [1]: 50%

SMILES: NC1CCC(NC(=O)CN2CCN(CC(=O)[O-])CCN(CC(=O)[O-])CCN(CC(=O)[O-])CC2)CC1.[Gd+3] (stereo not drawn) [2d]
- liver-specificity / class of contrast agent (ICR mice): ECF contrast agent
- signal enhancement at the kidney and abdominal aorta (ICR mice; initially after 0.1 mmol Gd/kg i.v., ICR mice): strong signal enhancement
- HPLC peak 6.54 min, 2d ([3]; 50° C./3 day): 90.10%
- HPLC peak 7.79 min ([3]; 50° C./3 day): 0.36%
- HPLC peak 8.86 min ([3]; 50° C./3 day): 0.30%
- HPLC peak 33.15 min ([3]; 50° C./3 day): 1.12%
- HPLC peak 40.33 min ([3]; 50° C./3 day): 0.007%
- HPLC peak 40.81 min ([3]; 50° C./3 day): 0.14%
- HPLC peak 43.77 min ([3]; 50° C./3 day): 0.25%
- HPLC peak 44.51 min ([3]; 50° C./3 day): 0.22%
- HPLC peak 46.56 min ([3]; 50° C./3 day): 0.18%
- HPLC peak 6.54 min, 2d ([3]; initial): 89.67%
- HPLC peak 7.79 min ([3]; initial): 0.30%
- HPLC peak 8.86 min ([3]; initial): 0.30%
- HPLC peak 33.15 min ([3]; initial): 1.20%
- HPLC peak 40.33 min ([3]; initial): 0.16%
- HPLC peak 40.81 min ([3]; initial): 0.14%
- HPLC peak 43.77 min ([3]; initial): 0.27%
- HPLC peak 44.51 min ([3]; initial): 0.23%
- HPLC peak 46.56 min ([3]; initial): 0.19%
- R1 [4]: 3.94 ± 0.13 mM⁻¹ s⁻¹
- R2 [4]: 3.68 ± 0.29 mM⁻¹ s⁻¹
- R1 in 0.67 mM HSA [4]: 3.91 ± 0.09 mM⁻¹ s⁻¹
- R2 in 0.67 mM HSA [4]: 4.07 ± 0.09 mM⁻¹ s⁻¹

SMILES: O=C(O)CN1CCN(CC(=O)O)CCN(CC(=O)NCC2CCC(C(=O)O)CC2)CCN(CC(=O)O)CC1 (stereo not drawn) [1b]
- Kd [5]: 3.98 µM

SMILES: CCOC(=O)C1CCC(CNC(=O)CN2CCN(CC(=O)O)CCN(CC(=O)O)CCN(CC(=O)O)CC2)CC1 (stereo not drawn) [1a]
- Kd [5]: 19.3 µM
